According to patent US10221144B2, “Antibacterial compounds having broad spectrum of activity” (priority 2014, dated 2019):
Where two headings read alike, the source gives them in different places.

What was measured:
Type in all cases: biochemical
[1] = target: T1, E. coli DNA gyrase (Escherichia coli, UniProt P0AES4+P0AES6); experiment: DNA gyrase supercoiling assay (E. coli); settings: for % inhibition DNA gyrase / inhibition at 50 µM: n/a = not active
T1 construct: purchased Inspiralis, UK
Description: (§1) The above compounds were tested for the inhibition of the enzyme DNA gyrase in a gyrase supercoiling assay and for the inhibition of the enzyme topoisomerase IV in a decatenation assay, in both Gram positive and Gram negative bacteria, according to the following methods.
(§2) Both the assays were carried out according to a set-up method modified from the article to Blanche F, et al. “Differential Behaviors of Staphylococcus aureus and Escherichia coli Type II DNA Topoisomerases”, Antimicrob. Agents Chemother., 1996, Vol. 40, No. 12 p. 2714-2720.
(§3) The compounds were screened at single concentration (200, 100 or 50 μM), in duplicate.
(§4) Reagents from S. aureus and E. coli Gyrase Supercoiling Assay kits (Inspiralis, UK) were used. A master mix with a total volume sufficient for the number of reactions to perform was prepared with the following reagents: 5× assay buffer, relaxed pBR322 substrate (0.5 μg/reaction), RNase-DNase free water. Aliquotes of this mix were dispensed in each tube, then 10× compound stock solutions or vehicle control (DMSO), were added to each reaction tube.
(§5) Reaction was started with E. Coli (2 U/reaction) or S. aureus (1 U/reaction) gyrase enzyme addition.
(§6) A sample added with an equal volume of dilution buffer was used as negative control (without enzyme).
(§7) The reaction tubes were gentle vortexed and incubated 30 minutes at 37° C. Each reaction was stopped by adding 30 μl of Stop Buffer and 30 μl chloroform/isoamyl alcohol (24/1), briefly vortexed for 5-10 seconds and centrifuged at 20000×g for 2 minutes. Samples were loaded onto 1% agarose gel and subjected to electrophoresis for 1 hour at 80V constant voltage in TAE (40 mM Tris-acetate, 2 mM EDTA).
(§8) Data acquisition and analysis. Treatment of relaxed pBR322 with DNA gyrase converted the relaxed topoisomers (DNAs of different linking number) to the supercoiled form of the plasmid, which migrates faster on an agarose gel. An upper band might also be visible, which consists of open-circular (nicked) DNA which is present in the relaxed substrate but co-migrates with some of the relaxed topoisomers.
(§9) Bands were visualized by ethidium bromide staining (dilution 1:20000) for 30 minutes followed by destaining in distilled water for 10 minutes.
(§10) In order to evaluate the compounds activity on the enzyme, the bands of supercoiled DNAs in the gel were photographed by a digital imaging system ImageQuant LAS 4000 (GE Healthcare) according to manufacturer's instructions.
(§11) The fluorescent intensity of each band was analyzed by ImageQuant TL software and it was expressed as volume (volume of the uncalibrated quantity of material in the image feature after subtraction of the background intensity by using rolling ball method).
(§12) Each band intensity was compared, as percentage, to vehicle sample band intensity, which served as positive control, on the same gel.
(§13) Inhibitory activity was expressed as percent of inhibition versus the positive control.
(§14) The supercoiled or decatenated DNA bands obtained as described in Example 1 were analysed as follows.
(§15) Bands were analyzed by gel documentation equipment (Syngene, Cambridge, UK) and quantitated using Syngene Gene Tools software. Raw gel data (fluorescent band volumes) collected from Syngene, GeneTools gel analysis software were converted to a percentage of the 100% control (the fully supercoiled or decatenated DNA band). […] The IC50 data were calculated by using the global curve fit non-linear regression tool by selecting the Single, 2 Parameter fit function from the Exponential Decay equation category.

[2] = target: T2, E. coli Topoisomerase IV (Escherichia coli, UniProt P0AFI2+P20083); experiment: Topoisomerase IV decatenation assay (E. coli); settings: for % inhibition Topo IV / inhibition at 50 µM: n/a = not active; for inhibition at 50 µM: read-out: % inhibition Topo IV
T2 construct: purchased Inspiralis, UK
T2 sequence (P20083 whole entry): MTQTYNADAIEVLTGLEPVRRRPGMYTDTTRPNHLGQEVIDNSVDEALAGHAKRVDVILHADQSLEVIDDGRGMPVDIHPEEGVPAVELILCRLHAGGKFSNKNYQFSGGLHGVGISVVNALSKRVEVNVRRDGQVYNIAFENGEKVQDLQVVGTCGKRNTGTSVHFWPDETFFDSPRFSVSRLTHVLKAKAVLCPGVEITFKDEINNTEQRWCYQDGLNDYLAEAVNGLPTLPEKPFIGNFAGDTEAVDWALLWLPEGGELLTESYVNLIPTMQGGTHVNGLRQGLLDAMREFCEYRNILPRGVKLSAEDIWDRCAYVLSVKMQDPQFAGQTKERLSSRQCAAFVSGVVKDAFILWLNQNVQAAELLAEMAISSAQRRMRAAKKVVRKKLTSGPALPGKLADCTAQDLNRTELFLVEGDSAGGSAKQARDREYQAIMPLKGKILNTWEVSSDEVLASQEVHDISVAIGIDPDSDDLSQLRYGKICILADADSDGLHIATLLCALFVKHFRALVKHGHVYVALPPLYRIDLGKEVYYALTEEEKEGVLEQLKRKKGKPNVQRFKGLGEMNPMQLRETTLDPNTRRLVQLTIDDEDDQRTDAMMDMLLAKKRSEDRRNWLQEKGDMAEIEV
T2 sequence (P0AFI2 whole entry): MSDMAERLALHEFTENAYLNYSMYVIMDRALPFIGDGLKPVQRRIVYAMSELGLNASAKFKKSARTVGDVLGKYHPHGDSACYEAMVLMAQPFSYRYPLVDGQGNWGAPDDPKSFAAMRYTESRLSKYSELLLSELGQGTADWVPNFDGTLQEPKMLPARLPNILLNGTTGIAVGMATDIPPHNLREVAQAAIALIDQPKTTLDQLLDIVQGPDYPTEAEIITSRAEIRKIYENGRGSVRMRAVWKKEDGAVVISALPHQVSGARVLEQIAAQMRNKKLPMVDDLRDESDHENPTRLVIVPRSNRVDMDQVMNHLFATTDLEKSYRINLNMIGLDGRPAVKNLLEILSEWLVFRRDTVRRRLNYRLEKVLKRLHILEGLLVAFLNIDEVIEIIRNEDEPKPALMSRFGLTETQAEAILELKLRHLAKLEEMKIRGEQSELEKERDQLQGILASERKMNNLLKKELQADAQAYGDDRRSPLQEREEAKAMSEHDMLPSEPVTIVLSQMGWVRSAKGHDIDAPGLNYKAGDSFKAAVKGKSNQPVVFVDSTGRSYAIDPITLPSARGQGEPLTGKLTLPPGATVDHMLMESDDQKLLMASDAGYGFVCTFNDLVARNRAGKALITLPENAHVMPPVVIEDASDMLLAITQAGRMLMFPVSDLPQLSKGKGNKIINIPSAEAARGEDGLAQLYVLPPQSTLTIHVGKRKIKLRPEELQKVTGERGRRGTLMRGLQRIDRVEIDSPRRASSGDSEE
Description: as §1, §2, §3
(§16) S. aureus and E. coli Topoisomerase IV decatenation kits (Inspiralis, UK) were used. A master mix with a total volume sufficient for the number of reactions to perform was prepared with the following reagents: 5× assay buffer (50 mM HEPES-KOH (pH 7.6), 100 mM potassium glutamate, 10 mM magnesium acetate, 10 mM DTT, 1 mM ATP, 50 μg/ml albumin), kDNA substrate (200 ng/reaction), RNase-DNase free water. Aliquots of this mix were dispensed in each tube, then 10× compound stock solutions or vehicle control (DMSO), were added in each reaction tube.
(§17) Reaction was started with Topoisomerase IV enzyme (0.5 U/reaction) addition.
as §6
(§18) The reaction tubes were gentle vortexed and incubated 30 minutes at 37° C. Each reaction was stopped by adding 30 μl of Stop Buffer and 30 μl of chloroform/isoamyl alcohol (24/1), briefly vortexed for 5-10 seconds and centrifuged at 20000×g for 2 minutes. Samples taken from the upper phase were loaded into 1% agarose gel and subjected to electrophoresis for 1 hour at 80V constant voltage in TAE (40 mM Tris-acetate, 2 mM EDTA).
(§19) Data acquisition and analysis. Due to the high molecular mass, kDNA could not enter an agarose gel under normal electrophoresis conditions, but remained in the wells. In the presence of Topo IV topoisomerase mini-circles (2.5 Kb) were released from kDNA by decatenation and were quickly and easily resolved in the gel at relatively high voltages.
(§20) Bands were visualized by ethidium bromide staining (dil 1:20000) for 30 minutes followed by destaining in distilled water for 10 minutes.
(§21) For single concentration screening assay, in order to evaluate the compounds activity on the enzymes, the bands of decatenated DNAs in the gel were photographed by a digital imaging system ImageQuant LAS 4000 (GE Healthcare) according to manufacturer's instructions.
as §11, §12, §13, §14, §15

[3] = target: T3, S. aureus DNA gyrase (Staphylococcus aureus, UniProt P0A0K8+P20831); experiment: DNA gyrase supercoiling assay (S. aureus); settings: for % inhibition DNA gyrase / inhibition at 50 µM: n/a = not active
T3 construct: purchased Inspiralis, UK
Description: as §1, §2, §3, §4, §5, §6, §7, §8, §9, §10, §11, §12, §13, §14, §15

[4] = target: T4, S. aureus Topoisomerase IV (Staphylococcus aureus, UniProt P0C1S7+P0C1U9); experiment: Topoisomerase IV decatenation assay (S. aureus); settings: S. aureus; for % inhibition Topo IV: n/a = not active; for IC50: concentration-response curve, eight half-log concentrations 0.1 to 300 μM, read-out: IC50 Topo IV
T4 construct: purchased Inspiralis, UK
T4 sequence (P0C1S7 whole entry): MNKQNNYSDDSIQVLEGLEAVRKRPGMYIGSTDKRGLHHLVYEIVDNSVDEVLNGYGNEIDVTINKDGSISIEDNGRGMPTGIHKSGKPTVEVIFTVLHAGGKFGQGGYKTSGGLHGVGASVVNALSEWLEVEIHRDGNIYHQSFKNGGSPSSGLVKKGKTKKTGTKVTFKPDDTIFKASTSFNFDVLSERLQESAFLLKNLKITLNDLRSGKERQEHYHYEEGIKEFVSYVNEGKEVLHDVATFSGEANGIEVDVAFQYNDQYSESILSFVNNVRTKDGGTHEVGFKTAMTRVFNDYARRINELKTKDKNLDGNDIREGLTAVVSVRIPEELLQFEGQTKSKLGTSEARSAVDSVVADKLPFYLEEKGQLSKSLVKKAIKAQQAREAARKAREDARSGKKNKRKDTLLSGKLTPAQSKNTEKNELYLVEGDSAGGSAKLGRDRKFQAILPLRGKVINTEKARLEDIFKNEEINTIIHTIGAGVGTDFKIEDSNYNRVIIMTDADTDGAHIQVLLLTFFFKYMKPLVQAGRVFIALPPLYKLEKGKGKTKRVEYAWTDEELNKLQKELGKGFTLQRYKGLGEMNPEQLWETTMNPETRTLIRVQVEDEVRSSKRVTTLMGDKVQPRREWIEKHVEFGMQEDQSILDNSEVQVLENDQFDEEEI
T4 sequence (P0C1U9 whole entry): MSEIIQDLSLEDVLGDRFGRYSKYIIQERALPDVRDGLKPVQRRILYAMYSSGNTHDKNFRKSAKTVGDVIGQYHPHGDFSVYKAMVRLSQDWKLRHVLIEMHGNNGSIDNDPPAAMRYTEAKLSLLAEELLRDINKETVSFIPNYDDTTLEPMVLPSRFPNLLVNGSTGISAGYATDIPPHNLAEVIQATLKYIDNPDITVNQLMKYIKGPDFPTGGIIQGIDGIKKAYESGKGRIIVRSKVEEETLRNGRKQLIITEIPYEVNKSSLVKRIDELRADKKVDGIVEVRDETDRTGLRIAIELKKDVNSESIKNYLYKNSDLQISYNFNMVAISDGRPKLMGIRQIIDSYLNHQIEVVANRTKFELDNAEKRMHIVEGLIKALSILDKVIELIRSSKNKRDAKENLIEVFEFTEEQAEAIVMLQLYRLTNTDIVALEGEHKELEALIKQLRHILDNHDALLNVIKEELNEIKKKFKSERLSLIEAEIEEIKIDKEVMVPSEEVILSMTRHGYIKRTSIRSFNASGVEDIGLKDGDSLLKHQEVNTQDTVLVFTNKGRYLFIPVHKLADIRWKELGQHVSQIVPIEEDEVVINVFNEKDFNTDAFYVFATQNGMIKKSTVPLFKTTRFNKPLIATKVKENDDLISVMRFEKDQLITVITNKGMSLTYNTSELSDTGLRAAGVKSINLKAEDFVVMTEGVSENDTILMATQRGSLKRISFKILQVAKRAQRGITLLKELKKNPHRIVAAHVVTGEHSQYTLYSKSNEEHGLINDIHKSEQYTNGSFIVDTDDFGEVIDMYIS
Description: as §1, §2, §3, §16, §17, §6, §18, §19, §20, §21, §11, §12, §13, §14, §15

[5] = E. coli, concentration-response curve, eight half-log concentrations 0.1 to 300 μM, read-out: IC50 DNA gyrase
[6] = E. coli, concentration-response curve, eight half-log concentrations 0.1 to 300 μM, read-out: IC50 Topo IV
[7] = S. aureus, concentration-response curve, eight half-log concentrations 0.1 to 300 μM, read-out: IC50 DNA gyrase

T1 sequence (P0AES4 whole entry, one chain of several): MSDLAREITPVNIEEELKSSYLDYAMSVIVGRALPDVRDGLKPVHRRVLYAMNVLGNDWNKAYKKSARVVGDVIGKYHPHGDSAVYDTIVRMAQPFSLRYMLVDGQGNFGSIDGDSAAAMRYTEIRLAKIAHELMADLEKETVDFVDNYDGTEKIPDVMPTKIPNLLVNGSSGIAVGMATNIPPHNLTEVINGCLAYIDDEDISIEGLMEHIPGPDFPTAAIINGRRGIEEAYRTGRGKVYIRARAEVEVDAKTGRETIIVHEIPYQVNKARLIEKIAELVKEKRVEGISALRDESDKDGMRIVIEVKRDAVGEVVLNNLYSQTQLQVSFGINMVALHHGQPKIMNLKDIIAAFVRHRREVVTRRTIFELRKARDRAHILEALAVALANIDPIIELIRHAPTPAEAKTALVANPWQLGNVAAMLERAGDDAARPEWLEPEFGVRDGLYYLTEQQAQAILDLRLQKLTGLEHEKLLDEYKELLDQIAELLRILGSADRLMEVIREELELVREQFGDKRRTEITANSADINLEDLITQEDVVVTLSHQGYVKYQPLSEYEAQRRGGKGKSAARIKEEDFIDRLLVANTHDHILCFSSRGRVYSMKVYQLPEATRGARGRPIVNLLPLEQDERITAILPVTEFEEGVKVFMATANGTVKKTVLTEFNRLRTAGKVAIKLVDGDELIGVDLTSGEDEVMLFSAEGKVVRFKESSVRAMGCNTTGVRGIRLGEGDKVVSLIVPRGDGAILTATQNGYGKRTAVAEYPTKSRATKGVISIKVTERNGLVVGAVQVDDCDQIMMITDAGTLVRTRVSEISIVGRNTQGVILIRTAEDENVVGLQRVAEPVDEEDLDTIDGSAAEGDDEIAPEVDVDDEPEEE

Row | Compound | IC50 [1] [µM] | inhibition at 50 µM ([1]; E. coli, conc. 50 μM) [%] | IC50 [2] [µM] | inhibition at 50 µM ([2]; E. coli, conc. 50 μM) [%] | IC50 [3] [µM] | inhibition at 50 µM ([3]; S. aureus, conc. 50 μM) [%] | further results
1 | 7-methoxy-1-chloroisoquinoline [Compound 88] |  |  |  |  |  |  | % inhibition DNA gyrase ([1]; E. coli, conc. 50 μM): 100%; IC50 [1, 5]: 3.2 µM; % inhibition Topo IV ([2]; E. coli, conc. 50 μM): 100%; IC50 [2, 6]: 0.9 µM; % inhibition DNA gyrase ([3]; S. aureus, conc. 50 μM): 100%; IC50 [3, 7]: 1.1 µM; % inhibition Topo IV ([4]; conc. 50 μM): 88%; IC50 [4]: 6.7 µM
2 | 7-methyl-1-chloroisoquinoline [Compound 72] |  |  |  |  |  |  | % inhibition DNA gyrase ([1]; E. coli, conc. 100 μM): 98%; IC50 [1, 5]: 2.6 µM; % inhibition Topo IV ([2]; E. coli, conc. 100 μM): 91%; IC50 [2, 6]: 3.8 µM; % inhibition DNA gyrase ([3]; S. aureus, conc. 100 μM): 97%; IC50 [3, 7]: 9.6 µM; % inhibition Topo IV ([4]; conc. 100 μM): 76%; IC50 [4]: 52 µM
3 | O=c1cc(NCCC[N+]2([O-])CCN(c3nccc4ccc(F)cc34)CC2)c2ccccc2o1 [Compound 105, 4-({3-[4-(7-fluoroisoquinolin-1-yl)-1-oxidopiperazin-1-yl]propyl}amino)-2H-chromen-2-one] | 11.4 | 91 | 5.6 | 66 | 6.6 | 100 | 
4 | O=c1cc(NCCCN2CCC(c3nccc4ccccc34)CC2)c2ccccc2o1 [Compound 109, 4-({3-[4-(isoquinolin-1-yl)piperidin-1-yl]propyl}amino)-2H-chromen-2-one] | 5.1 | 100 | 5.6 | 72 | 20.7 | 100 | 
5 | C[N+]1(CCCNc2cc(=O)oc3ccccc23)CCN(c2nccc3ccccc23)CC1 [Compound 124, 4-(isoquinolin-1-yl)-1-methyl-1-{3-[(2-oxo-2H-chromen-4-yl)amino]propyl}piperazin-1-ium iodide] | 7 | 79 | 6 | 62 | 9 | 75 | 
6 | O=c1cc(NCCCN2CCN(c3nccc4ccc(F)cc34)CC2)c2c(o1)CCOC2 [Compound 125, 4-({3-[4-(7-fluoroisoquinolin-1-yl)piperazin-1-yl]propyl}amino)-7,8-dihydro-2H,5H-pyrano[4,3-b]pyran-2-one] | 6.3 | 86 | 59 | 68 | 19 | 89 | 
7 | O=c1cc(CC(O)CCN2CCN(c3nccc4ccc(F)cc34)CC2)c2ccccc2o1 (stereo not shown) [Compound 134, 4-{4-[4-(7-fluoroisoquinolin-1-yl)piperazin-1-yl]-2-hydroxybutyl}-2H-chromen-2-one] | 2.8 | 87 | 2.5 | 78 | 0.81 | 71 | 
8 | O=c1oc2ccccc2c2[nH]c(CCN3CCN(c4nccc5ccc(F)cc45)CC3)nc12 [Compound 143, 2-{2-[4-(7-fluoroisoquinolin-1-yl)piperazin-1-yl]ethyl}chromeno[3,4-d]imidazol-4(1H)-one] |  | 96 |  | 91 |  | 89 | 
9 | O=c1oc2ccccc2c2[nH]c(CNC3CCN(c4nccc5ccc(F)cc45)CC3)cc12 [Compound 145, 2-({[1-(7-fluoroisoquinolin-1-yl)piperidin-4-yl]amino}methyl)[1]benzopyrano[4,3-b]pyrrol-4(1H)-one] |  | 99 |  | 100 |  | 97 | 
10 | O=c1oc2ccccc2c2[nH]c(CNC3CCN(c4nccc5ccc(F)cc45)CC3)nc12 [Compound 146, 2-({[1-(7-fluoroisoquinolin-1-yl)piperidin-4-yl]amino}methyl)[1]benzopyrano[3,4-d]imidazol-4(1H)-one] |  | 91 |  | 100 |  | 93 | 
11 | O=c1oc2ccccc2c2[nH]c(CCCN3CCN(c4nccc5ccc(F)cc45)CC3)nc12 [Compound 147, 2-{3-[4-(7-fluoroisoquinolin-1-yl)piperazin-1-yl]propyl}[1]benzopyrano[3,4-d]imidazol-4(1H)-one] |  | 84 |  | 74 |  | 85 | 
